Experimental data published in BindingDB's records for doi:10.1021/acs.jmedchem.0c00012 (University of Perugia, 2020).

Target: T1, Nuclear receptor subfamily 1 group I member 2 (Homo sapiens, UniProt O75469)
T1 sequence (O75469 whole entry): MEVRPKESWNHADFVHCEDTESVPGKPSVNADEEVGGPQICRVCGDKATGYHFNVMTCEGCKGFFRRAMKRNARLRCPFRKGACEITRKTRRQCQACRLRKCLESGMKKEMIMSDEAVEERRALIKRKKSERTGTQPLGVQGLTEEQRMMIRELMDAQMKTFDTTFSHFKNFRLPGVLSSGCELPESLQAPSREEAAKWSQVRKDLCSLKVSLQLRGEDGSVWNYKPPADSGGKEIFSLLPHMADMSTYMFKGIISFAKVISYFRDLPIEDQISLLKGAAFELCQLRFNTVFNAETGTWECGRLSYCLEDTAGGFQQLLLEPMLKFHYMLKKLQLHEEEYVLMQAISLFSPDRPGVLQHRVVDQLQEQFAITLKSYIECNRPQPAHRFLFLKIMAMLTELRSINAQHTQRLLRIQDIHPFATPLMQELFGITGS
Test: Agonist activity at His-tagged PXR-LBD/SRC-1p (unknown origin) expressed in Escherichia coli BL21(DE3) by coactivator recruitment based Alpha-screen assay

Cc1c(C)c2c(c(C)c1O)CC[C@@](C)(CCC[C@H](C)CCC[C@H](C)CCCC(C)C(=O)O)O2 (stereo partly specified)
EC50: 3.3 µM
